Measured values reported in patent publication US20150175545A1, “Preparation Method of Fluoro-Substituted Deuterated Diphenylurea” (SUZHOU ZELGEN BIOPHARMACEUTICAL CO., LTD, priority 2012, published 2015).
Values joined by “and” are separate entries in the source; they are usually repeats but may differ in a detail not shown here. Identical values can stand only once. Like-named read-outs stand apart in the source and are kept apart here.

Key:
[1] = Pharmacokinetic evaluation of CM4306, CM4308 and CM4309 in rats (mixed solution, intragastric); assay type: in vivo, SD rats; conditions: 4 mg/kg intragastric, mixed solution in PEG400, plasma; for MRT inf: read-out: MRT(0-∞)
Experimental: Blood samples were collected at 0.25, 0.5, 1.0, 2.0, 3.0, 5.0, 7.0, 9.0, 24, 36, 48 and 72 h after the administration.

[2] = molecular target: c-Kit protein tyrosine kinase (Homo sapiens, UniProt P10721); assay: ELISA inhibition of c-Kit protein tyrosine kinase at the molecular level; assay type: biochemical; conditions: for results (inhibition efficacy): c-Kit and PDGFR-β, efficacy if inhibition rate at 10^-5 mol/L greater than 50%
c-Kit protein tyrosine kinase, sequence (P10721 26-976): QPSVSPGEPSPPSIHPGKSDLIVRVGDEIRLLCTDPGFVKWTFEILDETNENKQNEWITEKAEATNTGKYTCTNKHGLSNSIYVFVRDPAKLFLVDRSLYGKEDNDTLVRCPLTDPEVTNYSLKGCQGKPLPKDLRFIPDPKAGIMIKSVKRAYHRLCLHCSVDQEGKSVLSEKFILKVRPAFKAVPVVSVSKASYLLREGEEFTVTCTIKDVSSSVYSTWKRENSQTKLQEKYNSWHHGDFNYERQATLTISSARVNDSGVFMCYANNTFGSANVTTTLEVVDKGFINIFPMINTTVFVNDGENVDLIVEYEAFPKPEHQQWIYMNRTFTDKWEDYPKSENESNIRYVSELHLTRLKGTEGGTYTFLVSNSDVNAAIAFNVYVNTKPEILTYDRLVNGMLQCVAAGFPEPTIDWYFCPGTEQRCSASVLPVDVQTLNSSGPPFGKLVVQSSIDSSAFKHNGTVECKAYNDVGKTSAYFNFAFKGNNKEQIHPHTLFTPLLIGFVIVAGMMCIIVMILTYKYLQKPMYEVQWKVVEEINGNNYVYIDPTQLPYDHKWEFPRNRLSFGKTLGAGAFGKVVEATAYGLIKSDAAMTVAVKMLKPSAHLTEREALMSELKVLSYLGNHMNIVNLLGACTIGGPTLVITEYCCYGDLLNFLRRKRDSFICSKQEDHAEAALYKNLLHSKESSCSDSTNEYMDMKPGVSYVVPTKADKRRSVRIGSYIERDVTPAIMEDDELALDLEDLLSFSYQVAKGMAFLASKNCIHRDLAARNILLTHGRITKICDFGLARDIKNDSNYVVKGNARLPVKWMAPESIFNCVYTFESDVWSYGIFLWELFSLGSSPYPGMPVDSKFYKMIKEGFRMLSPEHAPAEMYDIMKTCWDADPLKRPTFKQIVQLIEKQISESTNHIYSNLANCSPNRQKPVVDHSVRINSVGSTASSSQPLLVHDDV
Experimental: (§1) The activity of diphenylurea compounds for inhibiting c-Kit, PDGFR-β protein tyrosine kinases on molecular level was tested by Enzyme-Linked Immunosorbent Assay (ELISA).
(§2) Reacting substrate Poly(Glu,Tyr)4:1 was bought from Sigma; Monoclonal antibody against tyrosine phosphate PY99 was bought from Santa Cruz; Horseradish peroxidase labeled sheep-against-rat IgG was bought from Calbiochem; ATP, DTT, OPD were bought from Amresco; microplates were bought from Corning; Su11248 was bought from Merk.
(§3) See Roskoski, R., Jr. Sunitinib: a VEGF and PDGF receptor protein kinase and angiogenesis inhibitor. Biochem Biophys Res Commun, 356: 323-328, 2007. The details comprise:
Kinase reaction substrate Poly(Glu,Tyr)4:1 was diluted to 20 μg/ml by potassium-free PBS, and the microplates were coated. Diphenylurea samples to be tested were added in the wells of the coated microplates (the samples to be tested were made from the stock solution of 10^−2 M in DMSO, and diluted to the desired concentration with reaction buffer before use. The resulted solution was added into the wells to get the final concentration of 10^−5 mol/L in 100 μL reaction system). At the same time, the positive control compound Su11248 was added to the positive control wells.
ATP solution diluted with reaction buffer (the final concentration of ATP is 5 μM) and tyrosine kinase for testing diluted with reaction buffer were added in turn. The total volume of reaction system was 100 μL. At the same time, the negative control wells and the control wells without enzyme were set up.
The reaction system was placed in a wet box and shaked for 1 h at 37° C. by shaking shielding from light. After the reaction was completed, plates were washed three times with T-PBS. Antibody PY99 was added (100 μL/well), and plates were shaked for 30 min at 37° C. After the reaction was completed, the plates were washed with three times T-PBS. Horseradish peroxidase labeled sheep-against-rat IgG was added (100 μL/well), and the plates were shaked for 30 min at 37° C. After the reaction was completed, the plates were washed with T-PBS for three times. OPD developing liquid was added (100 μL/well), and reacted for 1-10 min at room temperature shielding from light. 50 μL of 2 M H2SO4 was added to quench the reaction. A492 value was determined using wavelength-adjustable microplates reader VERSAmax.
(§4) The inhibition ratio of samples can be calculated by the following formula: […]

[3] = test system: human liver cancer cell SMMC-7721; assay: Nude mice xenograft model inoculated with SMMC-7721 cells, tumor growth inhibition; assay type: in vivo; conditions: 30 mg/kg intragastric every day for 2 weeks; for relative tumor increment rate T/C %: effective if T/C ≦40% and p<0.05
Experimental: The establishment of tumor-bearing nude mice xenograft model: SMMC-7721 cells in logarithmic growth period were cultured. After cell number was counted, the cells were suspended in 1×PBS, and the concentration of the cell suspension was adjusted to 1.5×10^7/ml. The tumor cells were inoculated (s.c.) 3×10^6/0.2 ml/mice under the right armpit of nude mice. 45 nude mice were inoculated in total. When the tumor size reached 30-130 mm^3, 34 mice were randomly divided into different groups. […] Administration of testing drugs was started. […] Observation continued upon the withdraw till the tumor volume was larger than 2000 mm^3. The weight of animals and tumor size were tested twice a week during the experiment. […] The formula for calculating the tumor volume (TV) is: TV=a×b^2/2, wherein a and b independently and respectively represent the length and the breadth of the tumor. The formula for calculating the relative tumor volume (RTV) is: RTV=Vt/V0, wherein V0 is the tumor volume at the beginning of the administration, and Vt is […] when measured. The index for evaluating the antitumor activity is relative tumor increment rate T/C (%), and the calculation formula is: T/C (%)=(TRTV/CRTV)×100%, wherein, TRTV is the RTV for the treatment group, and CRTV is the RTV for the negative control group. Evaluation standard for efficacy: it is effective if the relative tumor increment rate T/C (%) is ≦40% and p<0.05 by statistics analysis.

[4] = molecular target: PDGFR-β protein tyrosine kinase (Homo sapiens, UniProt P09619); assay: ELISA inhibition of PDGFR-β protein tyrosine kinase at the molecular level; assay type: biochemical; conditions: 10 μM compound, ATP 5 μM, mean of duplicate experiments
PDGFR-β protein tyrosine kinase, sequence (P09619 33-1106): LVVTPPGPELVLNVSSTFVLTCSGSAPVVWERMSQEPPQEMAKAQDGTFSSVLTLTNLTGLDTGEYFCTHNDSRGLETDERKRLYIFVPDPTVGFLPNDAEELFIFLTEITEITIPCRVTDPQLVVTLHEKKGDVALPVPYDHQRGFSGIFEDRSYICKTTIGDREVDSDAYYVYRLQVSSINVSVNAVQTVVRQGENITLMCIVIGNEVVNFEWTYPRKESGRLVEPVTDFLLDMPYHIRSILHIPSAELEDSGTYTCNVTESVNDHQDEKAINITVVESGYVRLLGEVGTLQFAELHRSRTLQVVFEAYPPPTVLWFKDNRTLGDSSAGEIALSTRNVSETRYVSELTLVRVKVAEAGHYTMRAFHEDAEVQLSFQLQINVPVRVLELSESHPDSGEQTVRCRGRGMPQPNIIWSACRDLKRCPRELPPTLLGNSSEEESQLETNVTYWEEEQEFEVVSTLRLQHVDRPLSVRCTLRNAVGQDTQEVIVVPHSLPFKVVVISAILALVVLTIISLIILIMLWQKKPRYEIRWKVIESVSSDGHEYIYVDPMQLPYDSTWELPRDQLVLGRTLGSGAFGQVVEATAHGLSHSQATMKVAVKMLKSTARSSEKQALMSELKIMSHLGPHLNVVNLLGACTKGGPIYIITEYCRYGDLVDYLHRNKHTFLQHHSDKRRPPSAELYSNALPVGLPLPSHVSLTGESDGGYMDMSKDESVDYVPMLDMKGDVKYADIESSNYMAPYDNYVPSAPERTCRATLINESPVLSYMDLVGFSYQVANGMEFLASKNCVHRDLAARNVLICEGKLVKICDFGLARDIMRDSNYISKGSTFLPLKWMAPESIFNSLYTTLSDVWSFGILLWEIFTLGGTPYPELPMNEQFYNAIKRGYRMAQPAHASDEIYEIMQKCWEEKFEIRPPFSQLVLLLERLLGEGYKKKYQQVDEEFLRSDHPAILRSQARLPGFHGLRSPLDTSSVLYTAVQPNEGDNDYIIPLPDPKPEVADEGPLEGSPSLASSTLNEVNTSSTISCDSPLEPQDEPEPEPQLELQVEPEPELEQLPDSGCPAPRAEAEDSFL
Experimental: as §1, §2, §3
Kinase reaction substrate Poly(Glu,Tyr)4:1 was diluted to 20 μg/ml by potassium-free PBS, and the microplates were coated. […]
The reaction system was placed in a wet box and shaked for 1 h at 37° C. by shaking shielding from light. […] A492 value was determined using wavelength-adjustable microplates reader VERSAmax.
as §4

[5] = male, SD, rat, plasma, po, 4 mg/kg, individual rat
[6] = male, SD, rat, plasma, po, 4 mg/kg, mean value of 3 rats
[7] = male, SD, rat, plasma, po, 4 mg/kg, mean value of 3 rats, read-out: Cmax
[8] = male, SD, rat, plasma, po, 4 mg/kg, mean value of 3 rats, read-out: Tmax

Row | AUC(0-∞) ([1]; individual rat, 4 mg/kg) | Cmax ([1]; individual rat, 4 mg/kg) | MRT(0-∞) ([1]; individual rat, 4 mg/kg) | Tmax ([1]; individual rat, 4 mg/kg) | AUC(0-inf) [1, 5] | half-life [1, 5] | MRT inf [1, 5] | AUC(0-inf) [1, 6] | Cmax [1, 7] | MRT inf [1, 6] | Tmax [1, 8] | AUC(0-t) ([1]; mean value of 3 rats) | results (inhibition efficacy) [2] | SMILES | AUC(0-t) ([1]; individual rat, 4 mg/kg) | T1/2 ([1]; individual rat, 4 mg/kg) | half-life [1, 6] | relative tumor increment rate T/C % [3] | also measured
1 | 9541 ng·h/mL and 18973 ng·h/mL | 378 ng/mL and 279 ng/mL and 817 ng/mL | 24.1 h and 21.7 h | 8.0 h and 6.0 h and 1.0 h | 11600 ng·h/mL | 10.1 h | 21 h | 13400 ng·h/mL | 491 ng/mL | 22.2 h | 5 h | 13119 ng·h/mL | effective | CNC(=O)c1cc(Oc2ccc(NC(=O)Nc3ccc(Cl)c(C(F)(F)F)c3)c(F)c2)ccn1 [CM4308, 4-(4-(3-(4-chloro-3-(trifluoromethyl)phenyl]ureido)-3-fluorophenoxy)-N-methylpicolinamide] | 11473 ng·h/mL and 9327 ng·h/mL and 18558 ng·h/mL | 11.7 h and 11.4 h | 11.1 h | 51.6% | 
2 |  |  |  |  |  |  |  |  |  |  |  |  | effective | CCN(CC)CCNC(=O)c1c(C)[nH]c(/C=C2\C(=O)Nc3ccc(F)cc32)c1C [Su11248] |  |  |  |  | % Inhibition ratio for inhibiting tyrosine kinase at 10 μM, PDGFR-β mean value [4]: 93.9%; % Inhibition ratio for inhibiting tyrosine kinase at 10 μM, c-Kit mean value ([2]; 10 μM compound, ATP 5 μM, mean of duplicate experiments): 90.2%
3 | 41544 ng·h/mL and 25008 ng·h/mL | 642 ng/mL and 1568 ng/mL and 651 ng/mL | 23.2 h and 23.9 h | 8.0 h and 2.0 h | 24600 ng·h/mL | 14.8 h | 28.2 h | 30400 ng·h/mL | 954 ng/mL | 25.1 h | 6 h | 29414 ng·h/mL | effective | CNC(=O)c1cc(Oc2ccc(NC(=O)Nc3ccc(Cl)c(C(F)(F)F)c3)cc2)ccn1 [CM4306, 4-(4-(3-(4-chloro-3-(trifluoromethyl)phenyl]ureido)-phenoxy)-(N-methyl)picolinamide] | 23431 ng·h/mL and 40239 ng·h/mL and 24571 ng·h/mL |  |  |  | 

Row | SMILES | AUC(0-∞) ([1]; individual rat, 4 mg/kg) | Cmax ([1]; individual rat, 4 mg/kg) | MRT(0-∞) ([1]; individual rat, 4 mg/kg) | Tmax ([1]; individual rat, 4 mg/kg) | AUC(0-inf) [1, 5] | half-life [1, 5] | MRT inf [1, 5] | AUC(0-inf) [1, 6] | Cmax [1, 7] | MRT inf [1, 6] | Tmax [1, 8] | AUC(0-t) ([1]; mean value of 3 rats) | results (inhibition efficacy) [2] | AUC(0-t) ([1]; individual rat, 4 mg/kg) | T1/2 ([1]; individual rat, 4 mg/kg) | half-life [1, 6] | relative tumor increment rate T/C % [3] | also measured
4 | [2H]C([2H])([2H])NC(=O)c1cc(Oc2ccc(NC(=O)Nc3ccc(Cl)c(C(F)(F)F)c3)c(F)c2)ccn1 [CM4309, 4-(4-(3-(4-chloro-3-(trifluoromethyl)phenyl]ureido)-3-fluorophenoxy)-N-(methyl-d3)picolinamide] | 41702 ng·h/mL and 28899 ng·h/mL | 933 ng/mL and 530 ng/mL | 39.1 h and 36.7 h | 24.0 h and 1.0 h and 8.0 h | 27400 ng·h/mL | 26.7 h | 45.9 h | 32700 ng·h/mL | 644 ng/mL | 40.6 h | 11 h | 27804 ng·h/mL | effective | 22220 ng·h/mL and 35592 ng·h/mL and 25601 ng·h/mL | 23.4 h and 20.9 h | 23.7 h | 27.0% and < 40% | Cmax ([1]; male, SD, rat, plasma, po, 4 mg/kg, individual rat, read-out: Cmax): 470 ng/mL; effect on tumor growth (tumor volume vs control group) ([3]; p<0.01 vs control group): significant effect in inhibiting tumor growth
